Reference: ChEMBL document CHEMBL1156032, “Potent small molecule mouse CD22-inhibitors: exploring the interaction of the residue at C-2 of sialic acid scaffold” (Bioorg Med Chem Lett, 2009)

What was measured:
B-cell receptor CD22 = target: T1, B-cell receptor CD22 (Mus musculus, UniProt P35329); assay: Binding affinity to mouse CD22 after 1 hr by competition ELISA
T1 sequence (P35329 whole entry): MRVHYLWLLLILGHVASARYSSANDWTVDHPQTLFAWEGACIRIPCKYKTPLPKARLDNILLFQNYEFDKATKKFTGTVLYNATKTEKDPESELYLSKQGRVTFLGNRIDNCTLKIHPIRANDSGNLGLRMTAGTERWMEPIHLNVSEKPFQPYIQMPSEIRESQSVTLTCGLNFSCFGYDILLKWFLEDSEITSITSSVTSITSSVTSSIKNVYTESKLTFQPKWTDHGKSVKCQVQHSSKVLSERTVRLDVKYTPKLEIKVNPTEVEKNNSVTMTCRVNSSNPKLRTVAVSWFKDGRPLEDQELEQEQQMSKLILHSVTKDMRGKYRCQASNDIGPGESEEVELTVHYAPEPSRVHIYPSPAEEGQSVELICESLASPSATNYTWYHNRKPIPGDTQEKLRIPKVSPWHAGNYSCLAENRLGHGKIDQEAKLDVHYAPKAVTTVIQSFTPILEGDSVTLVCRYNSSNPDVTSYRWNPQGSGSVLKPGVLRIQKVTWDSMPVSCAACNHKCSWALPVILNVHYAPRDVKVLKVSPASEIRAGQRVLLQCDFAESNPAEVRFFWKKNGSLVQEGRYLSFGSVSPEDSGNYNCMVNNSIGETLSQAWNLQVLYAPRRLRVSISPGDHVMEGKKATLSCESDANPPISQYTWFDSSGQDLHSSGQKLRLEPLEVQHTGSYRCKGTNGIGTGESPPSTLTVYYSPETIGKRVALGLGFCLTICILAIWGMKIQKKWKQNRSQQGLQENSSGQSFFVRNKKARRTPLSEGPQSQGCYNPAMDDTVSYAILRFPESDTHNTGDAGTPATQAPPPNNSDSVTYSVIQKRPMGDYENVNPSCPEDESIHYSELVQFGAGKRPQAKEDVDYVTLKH

[1] = target: T2, B-cell receptor CD22 (Mus musculus) (UniProt P35329); assay: Ratio of 9-([…]-4-biphenyl)acetamido-9-deoxy- Neu5Gca2-6GalOMP IC50 to compound IC50 for mouse CD22 after 1 hr by competition ELISA
T2 sequence (whole entry): T1 sequence (P35329 whole entry)

SMILES	IC50 (B-cell receptor CD22) [µM]	Ratio IC50 [1]
CC(=O)N[C@@H]1[C@H]([C@H](O)[C@H](O)CO)O[C@@](OC[C@H]2O[C@@H](OCC[Si](C)(C)C)[C@H](O)[C@@H](O)[C@H]2O)(C(=O)O)C[C@@H]1O	> 1000	
COc1ccc(O[C@@H]2O[C@H](CO[C@]3(C(=O)O)C[C@H](O)[C@H](NC(=O)CO)[C@H]([C@H](O)[C@H](O)CO)O3)[C@H](O)[C@H](O)[C@H]2O)cc1	305	
COc1ccc(O[C@@H]2O[C@H](CO[C@]3(C(=O)O)C[C@H](O)[C@H](NC(=O)CO)[C@H]([C@H](O)[C@H](O)CN)O3)[C@H](O)[C@H](O)[C@H]2O)cc1	82.9	
C[Si](C)(C)CCO[C@@H]1O[C@H](CO[C@]2(C(=O)O)C[C@H](O)[C@H](NC(=O)CO)[C@H]([C@H](O)[C@H](O)CO)O2)[C@H](O)[C@H](O)[C@H]1O	545	
O=C(Cc1ccc(-c2ccc(O)cc2)cc1)NC[C@@H](O)[C@@H](O)[C@@H]1O[C@@](OCc2ccc(-c3ccccc3)cc2)(C(=O)O)C[C@H](O)[C@@H]1NC(=O)CO	0.19	20.2
COc1ccc(O[C@@H]2O[C@H](CO[C@]3(C(=O)O)C[C@H](O)[C@H](NC(=O)CO)[C@H]([C@H](O)[C@H](O)CNC(=O)Cc4ccc(-c5ccc(O)cc5)cc4)O3)[C@H](O)[C@H](O)[C@H]2O)cc1		1
O=C(Cc1ccc(-c2ccc(O)cc2)cc1)NC[C@@H](O)[C@@H](O)[C@@H]1O[C@@](OCc2ccccc2)(C(=O)O)C[C@H](O)[C@@H]1NC(=O)CO	0.1	38.4
